The record followed here is PubChem BioAssay AID1959 (Broad Institute, 2009).

The source made the active and inactive calls.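 How the source made its calls: active means growth-inhibition EC50 no more than tenfold above the top tested dose; inconclusive means flat fit between 30% and 70% inhibition, or unreliable fit; inactive means EC50 more than tenfold above the top tested dose.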

The test system of this test is E. coli NEB5alpha growth, BacTiter-Glo luminescence, 4 h. The test can be described thus: Escherichia coli growth inhibition, dose response, counter-screen for MEX-5/POS-1 RNA-binding inhibitor project, luminescence, NEB5alpha (AID 1959).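 Further: pUC19-transformed ampicillin-resistant cells grown in LB with ampicillin.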 Background: The purpose of a counterscreen is to sort out artefacts and off-target activity.
As to `COC(=O)c1cc2n3ccccc3c(C)c(-c3ccccc3)c-2c1C(=O)OC`, the EC50 is > 11 µM (inactive).

`O=c1[nH]c(=O)n(Cc2ccccc2Cl)c(O)c1C=Nc1ccc(F)cc1`: the EC50 was > 11 µM (inactive).

As for `C=CCn1cc(C=C2C(=O)NC(=O)NC2=O)c2ccccc21`, the EC50 was > 11 µM (inactive). As for `N#C/C(=C/c1cccn1-c1cccc(C(=O)O)c1)c1ccc(F)cc1`, the EC50 was > 11 µM (inactive). Turning to `CC1(C)CC(=O)C2=C(C1)OC(N)=C(C#N)C2c1ccccc1OC(=O)N1CCOCC1` (stereo unspecified), the EC50 was > 11 µM (inactive). As to `O=C1NC(=S)N(c2ccccc2)C(=O)/C1=C/c1ccco1`, the EC50 was > 11 µM (inactive).

Take `C/C(=N\Nc1ncnc2sc(C)c(C)c12)c1ccccn1`: the EC50 was > 11 µM (inactive). As for `Cc1cc(=O)nc2c3ccccc3n(CC(=O)Nc3ccccc3Br)n12`, the EC50 is > 11 µM (inactive). In the case of `Cc1ccc(-n2ncc3c(NNC(=O)c4ccco4)ncnc32)cc1C` it was > 11 µM (inactive); in that of `Cn1c(N=Nc2ccc(N3CCOCC3)cc2)[n+](C)c2ccccc21`, > 11 µM (inactive); in that of `COc1ccc(NC(=O)Nc2cc(C)cc(C)c2)cn1`, > 11 µM (inactive). With `O=C(N/N=C/c1c(O)n(Cc2ccccc2)c(=O)[nH]c1=O)c1ccncc1` the figure was > 11 µM (inactive); with `COC(=O)CCC(=O)OC1(C)C(=O)C2=CN(CCCOC(C)C)C(c3ccc(OC)cc3)=CC2=C(Br)C1=O` (stereo unspecified), > 11 µM (inactive). Take `O=C(N/N=C\C1C(=O)NC(=S)N(c2ccccc2)C1=O)c1ccc(O)cc1` (stereo unspecified): the EC50 is > 11 µM (inactive).

Take `COc1cccc(CN2C(=O)C3(C(C#N)=C(N)OC4=C3C(=O)CCC4)c3ccccc32)c1` (stereo unspecified): the EC50 was > 11 µM (inactive). In the case of `COc1cc(NCCCC(C)N)c2ncccc2c1` (stereo unspecified) it was > 11 µM (inactive); in that of `CN(C)CCN(C)Cc1c2ccccc2c(CN(C)CCN(C)C)c2ccccc12`, > 11 µM (inactive). Take `CCN(CC)C(=O)c1ccc2c(c1)C1C=CCC1C(C(=O)O)N2` (stereo unspecified): the EC50 was > 11 µM (inactive). In the case of `CCCCOC(=O)c1ccc(N=Nc2c(C)c(C#N)c(O)[nH]c2=O)cc1` it was > 11 µM (inactive). In the case of `CCc1ccc(/C=C2/SC(=S)N(CCC(=O)Nc3cccnc3)C2=O)cc1` it was > 11 µM (inactive). In the case of `Cc1cc(N=Cc2c(O)n(-c3ccc4c(c3)OCO4)c(=O)c3ccccc23)ccn1` it was > 11 µM (inactive). `COc1ccccc1Oc1cn[nH]c1-c1ccc(OCC(=O)NN)cc1O`: the EC50 is > 11 µM (inactive). With `C=CCn1c(=S)[nH]c2nc3c(cc2c1=O)COC(C)(C)C3` the figure was > 11 µM (inactive). With `COC(=O)c1ccc(-n2c(CCC(=O)O)ccc2-c2ccc(C)cc2)cc1` the figure was > 11 µM (inactive). As to `COC(=O)c1cc(-n2cccc2)ccc1N1CCOCC1`, the EC50 is > 11 µM (inactive). With `C=CCn1c(O)c(C=Nc2ccc(N(CC)CC)cc2)c(=O)[nH]c1=O` the figure was > 11 µM (inactive). In the case of `CC1(OC(=O)c2cccs2)C(=O)C=C2C=C(C3CC3)OC=C2C1=O` (stereo unspecified) it was > 11 µM (inactive); in that of `Cc1n[nH]c(=O)nc1N/N=C/c1ccc(O)c([N+](=O)[O-])c1`, > 11 µM (inactive); in that of `COc1ccc(C(=O)Nc2nc(-c3ccc([N+](=O)[O-])cc3)c(-c3ccccc3)s2)cc1`, > 11 µM (inactive). With `COC(=O)c1cccc(-n2c(C)cc(C=O)c2C)c1C` the figure was > 11 µM (inactive).

On to `CC1C2(C)OC(=N)C(C#N)(C(C)O2)C1(C#N)C#N` (stereo unspecified), for which the EC50 is > 11 µM (inactive). In the case of `N#CC1=C(N)OC2=C(C(=O)CC(c3ccccc3)C2)C1c1ccc2c(c1)OCO2` (stereo unspecified) it was > 11 µM (inactive); in that of `O=C(NCCOc1ccccc1)C1Nc2ccc(OC(F)(F)F)cc2C2C=CCC12` (stereo unspecified), > 11 µM (inactive). As for `CCc1cc(=O)oc2cc(C)cc(OC(C)C(=O)O)c12` (stereo unspecified), the EC50 is > 11 µM (inactive). In the case of `S=C(NCc1ccncc1)Nc1ccc(Cl)cc1Cl` it was > 11 µM (inactive).

In the case of `O=C(N/N=C/C=C/c1ccc([N+](=O)[O-])cc1)c1cccs1`, the EC50 is > 11 µM (inactive).

Take `CCC(=O)OC1(C)C(=O)C=C2C=C(c3ccc(C#N)cc3)OC=C2C1=O` (stereo unspecified): the EC50 is > 11 µM (inactive).

For the molecule `CN1CCc2cccc3c2[C@H]1Cc1ccc(O)c(O)c1-3`, the EC50 is > 11 µM (inactive). With `N#C/C(=N\Nc1ccc(Cl)cc1)C(=O)c1ccsc1` the figure was > 11 µM (inactive); with `CC(=O)c1cc(NC(=O)c2ccc(Cl)cc2)c(=O)oc1/C=C/N(C)C`, > 11 µM (inactive). On to `Cc1[nH][nH]c(=O)c1/C=N/N1CCOCC1`, for which the EC50 was > 11 µM (inactive). On to `O=C(O)C(=O)/C(=C\c1ccc(Cl)cc1)c1ccc2ccccc2n1`, for which the EC50 is > 11 µM (inactive). With `COc1cc(C2C(C#N)=C(N)OC3=C2C(=O)CC(C)(C)C3)cc([N+](=O)[O-])c1O` (stereo unspecified), the EC50 was > 11 µM (inactive). With `Oc1cc2c(cc1O)C(c1ccccc1)CNCC2` (stereo unspecified), the EC50 was > 11 µM (inactive).

As for `CC(C)C1Nc2ccc(S(N)(=O)=O)cc2C2C=CCC21` (stereo unspecified), the EC50 was > 11 µM (inactive). With `CCOC(=O)c1c2ccc(OCC(=O)N/N=C/c3ccc(Cl)cc3)cc2n2ccccc12` the figure was > 11 µM (inactive); with `O=S(=O)(c1cccc(-c2csc(-c3cccnc3)n2)c1)N1CCOCC1`, > 11 µM (inactive); with `COc1cc(NC(=O)CSc2nnc3ccc(-c4ccncc4)nn23)cc(OC)c1`, > 11 µM (inactive). Turning to `CCCCOc1ccc(/C=C2/Sc3ccccc3C2=O)cc1`, the EC50 was > 11 µM (inactive). In the case of `CC(=O)Nc1ccc(NC(=O)C(C)OC(=O)/C(C#N)=C/c2ccc(N(C)C)cc2)cc1` (stereo unspecified) it was > 11 µM (inactive). In the case of `Cc1ccc(C)c(N2CCN(C(=O)c3cc4ccccn4n3)CC2)c1` it was > 11 µM (inactive). For the molecule `COc1cccc(C2c3c(oc4ccccc4c3=O)C(=O)N2Cc2ccco2)c1` (stereo unspecified), the EC50 was > 11 µM (inactive). `Cc1ccccc1N1C(=O)NC(=O)/C(=C\c2cc(C)n(C)c2C)C1=O`: the EC50 is > 11 µM (inactive).

In the case of `Nc1ccc2nc(CCCO)[nH]c2c1`, the EC50 is > 11 µM (inactive). For `COc1cccc(NC(=O)c2ccccc2Br)c1`, the EC50 was > 11 µM (inactive). As for `COc1cccc(NC(=O)C(=O)c2cn(CC(=O)N3CCOCC3)c3ccccc23)c1`, the EC50 is > 11 µM (inactive). In the case of `O=C(O)C(=O)/C(=C\c1cccc2ccccc12)c1ccc2ccccc2n1` it was > 11 µM (inactive).

In the case of `O=C1N=c2ccc([N+](=O)[O-])cc2=C1c1sc(=O)[nH]c1O`, the EC50 was > 11 µM (inactive). Consider `COC(=O)c1cccc(-n2c(CCC(=O)O)ccc2-c2cccs2)c1`, for which the EC50 was > 11 µM (inactive). With `O=C1NC(=S)/C(=C\c2ccc(-c3ccccc3Cl)o2)S1` the figure was > 11 µM (inactive). Take `CC(C)C1Nc2c(O)cc(Cl)c([N+](=O)[O-])c2C2C=CCC21` (stereo unspecified): the EC50 is > 11 µM (inactive). In the case of `COc1c(O)cccc1[C@H](O)C1CCN(CCc2ccc(F)cc2)CC1` it was > 11 µM (inactive); in that of `CC(=NCCN1CCCCC1)c1c(O)n(-c2ccc(Cl)cc2)c(=O)[nH]c1=O`, > 11 µM (inactive); in that of `N=c1c(C(=O)NC2CCCCC2)cc2c(=O)n3ccccc3nc2n1CCc1ccccc1`, > 11 µM (inactive). As to `Cc1ccc2oc(=O)c(/C=C(\O)CC(C)C)nc2c1`, the EC50 is > 11 µM (inactive).

For `CCN(CC)c1ccc(/C=C/C(=O)c2ccc(Br)cc2)cc1`, the EC50 is > 11 µM (inactive). In the case of `CCNC(=O)c1cc2c(=O)n3cccc(C)c3nc2n(Cc2ccc(C)cc2)c1=N`, the EC50 was > 11 µM (inactive). In the case of `O=C1c2cccc3c(O)ccc(c23)C(=O)N1Cc1ccccc1` it was > 11 µM (inactive); in that of `Cc1nc(S/C(=C\c2ccc(-c3ccc(C(=O)O)c(Cl)c3)o2)C(=O)O)n[nH]1`, > 11 µM (inactive); in that of `CC1=CC(C)(C)N2C(=O)C3(C(C#N)=C(N)OC4=C3C(=O)CCC4)c3c(C)c(C)cc1c32` (stereo unspecified), > 11 µM (inactive).

For the molecule `COc1ccc(/C=c2\sc3nc(=O)c(C)nn3c2=O)c(OC)c1`, the EC50 was > 11 µM (inactive). With `Cc1ccc2c(c1)C1C=CCC1C(C(=O)NCCCN1CCOCC1)N2` (stereo unspecified) the figure was > 11 µM (inactive); with `CCN1C(=O)NC(=O)/C(=C\c2cn(CC(=O)O)c3ccccc23)C1=O`, > 11 µM (inactive); with `OCCCNc1ncnc2sc3c(c12)CCN(Cc1ccccc1)C3`, > 11 µM (inactive).

As to `O=C1CS/C(=N/N=C/c2cccs2)N1`, the EC50 was > 11 µM (inactive). For the molecule `Cc1ccn2cc(-c3ccc(O)c(O)c3)nc2c1`, the EC50 is > 11 µM (inactive). With `O=C(Nc1ccccc1)c1nn(-c2ccccc2)c(=O)cc1C(F)(F)F` the figure was > 11 µM (inactive); with `COc1ccc(N=Cc2c(O)c3ccccc3n2C(C)=O)cc1`, > 11 µM (inactive).

Consider `COC(=O)Cn1cc(/C=C2\C(=O)NC(=O)N(c3ccccc3)C2=O)c2ccccc21`, for which the EC50 is > 11 µM (inactive). In the case of `CCOc1cccc(=O)c2c(C)n(-c3ccc(C(=O)O)cc3)c(C)c12` it was > 11 µM (inactive); in that of `CCOC(=O)/C=c1\s/c(=C\c2ccc(C#N)cc2)c(=O)n1CC(=O)NCc1ccco1`, > 11 µM (inactive).

With `O=C(/C=C/c1ccc([N+](=O)[O-])s1)N1CCCC1`, the EC50 is > 11 µM (inactive).

`COc1cccc(C2C(C#N)=C(N)OC3=C2C(=O)CCC3)c1OC(=O)c1ccco1` (stereo unspecified): the EC50 is > 11 µM (inactive). For the molecule `Cc1cccn2c(=O)c3cc(C(=O)NC4CCCCC4)c(=N)n(Cc4ccccc4)c3nc12`, the EC50 was > 11 µM (inactive). In the case of `O=C(N/N=C/c1c(O)n(CCc2ccccc2)c(=O)[nH]c1=O)c1ccccc1` it was > 11 µM (inactive); in that of `COC(=O)c1sccc1NC(=O)c1ccc(C)s1`, > 11 µM (inactive).

One may read the EC50 as the concentration at which the effect is half-maximal.
